US20040185509A1, “Eosinophil prostaglandin d2 receptor assays” (priority 2001, published 2004)
Entries after “also recorded” stand apart in the source; their conditions may differ.

Tests used:
[1] = tested on: purified human eosinophils; test: Eosinophil chemokinesis (chemotactic chamber without chemoattractant in the lower chamber); assay type: cell-based; conditions: for stimulation of eosinophil chemokinesis (result in words): FIG. 3: BW245C 1 μM, DK-PGD2 100 nM, PAF 100 nM, IL-5 1 ng/ml, PGE2, fluprostenol and latanoprost 1 μM; for increase in eosinophil chemokinesis: data not shown
Protocol: Purified eosinophils were resuspended at 3.0×10^6 cells per ml in RPMI 1640 medium supplemented with 0.5% (v/v) fetal bovine serum. Compounds to be tested were added from 1000× concentrated stock solutions to 100 μl of cells in a 1.5 ml centrifuge tube and incubated at room temperature for 5 minutes. 100 μl of treated cells were then added to the top half of a chemotactic chamber (6.5 mm Transwell, 3.0 μm polycarbonate membrane from Costar) and 600 μl of RPMI, supplemented with 0.5% (v/v) fetal bovine serum, was added to the bottom chamber. After a 2 hour incubation at 37° C. in a CO2 chamber, the top chamber was discarded and the number of cells that had migrated to the lower chamber was evaluated by counting the cells using an hematocytometer. For each condition tested, the number of migrating eosinophils in two chemotactic chambers was averaged.
Chemokinesis was measured by incubating eosinophils with PGD2 for 5 minutes prior to their loading in the upper chamber of a chemotactic unit lacking a chemoattractant in the lower chamber. PGD2 at a concentration of […] increased eosinophil chemokinesis by 6-fold compared to cells treated with vehicle only (FIG. 3). PGD2 at concentrations of 10 nM and 1 μM increased eosinophil chemokinesis by a factor of 5 and 9-fold respectively (data not shown).

[2] = tested on: purified human eosinophils; test: Eosinophil morphology change by light microscopy; assay type: cell-based
Protocol: Purified eosinophils were incubated in RPMI 1640 media supplemented with 0.5% fetal bovine serum in the presence of the compound to be tested for 15 minutes in a 24-well dish. Light microscopy was performed with an inverted Axiovert 25 (Zeiss) and images were obtained with a 35 mm SLR camera (ARIA CONTAX, Kyocera corporation) using Kodak Elite Chrome 160T film.
Vehicle-treated eosinophils were spherical and only weakly adhered to the culture dish. […] This effect was seen on the majority of eosinophils from all donors analysed (n=20).

[3] = tested on: purified human eosinophils; test: In vitro eosinophil apoptosis assay (Annexin V/propidium iodide, flow cytometry); assay type: cell-based; conditions: for effect on eosinophil apoptosis / percentage of non-apoptotic eosinophils (result in words): 36 hours in culture, 1 μM, interleukin-5 at 1 ng/ml, FIG. 5
Protocol: Purified eosinophils were resuspended at 2.0×10^5 cells per ml in RPMI 1640 medium supplemented with 10% (v/v) fetal bovine serum, 2 mM glutamine, and 100 units of penicillin and streptomycin. Compounds to be tested were diluted 1:1000 to their final concentration and the cells were incubated at 37° C. in a CO2 chamber for 36 hours. The extent of apoptosis in the eosinophil population was evaluated using the TACS™ Annexin-V-FITC apoptosis detection kit (R&D systems). Non-apoptotic cells are not stained with either Annexin-V FITC or propidium iodide. Early apoptotic cells are stained with Annexin-V FITC but not propidium iodide (green fluorescence). Late apoptotic cells are stained with both Annexin-V FITC and propidium iodide (dual green and red fluorescence). Necrotic cells are only stained with propidium iodide (red fluoresecence). Labeled eosinophils were analyzed in a FACS Calibur system from Becton Dickinson.
The ability of PGD2 to modulate apoptosis in eosinophils was measured by quantifying the capacity of Annexin V to bind to phosphatidylserine on the outer membrane of apoptotic cells. (Koopman, et al., Blood 84:1415, 1994.) Necrotic cell death was determined by propidium iodide uptake. (Darzynkiewicz, et al., Cytometry 13:795, 1992.) Annexin V-FITC and propidium iodide staining of eosinophils was evaluated by FACS analysis.

[4] = tested on: purified human eosinophils; test: Eosinophil degranulation (release of ECP into the media, radioimmunoassay); assay type: cell-based; conditions: for release of ECP from eosinophils (result in words): FIG. 4: DK-PGD2 100 nM, BW245C 1 μM, FP and EP agonists 1 μM
Protocol: Purified eosinophils were resuspended at 3.0×10^6 cells per ml in RPMI 1640 medium supplemented with 0.5% (v/v) fetal bovine serum. Compounds to be tested were diluted 1:1000 to their final concentration in 300 μl of cells in a 1.5 ml centrifuge tube. The cells were immediately transferred to a 24-well plate. After an 1 hour incubation at 37° C. in a CO2 chamber, the cells were removed by centrifugation (4° C., 300× g, 10 minutes). Eosinophil cationic protein (ECP) in the supernatant was quantified by a double antibody radioimmunoassay (Pharmacia) following the manufacturer's protocol.
Degranulation of eosinophils was assayed by challenging freshly isolated eosinophils with PGD2 and measuring release of the eosinophil cationic protein (ECP) into the media using an ECP-specific radioimmunoassay.

[5] = tested on: eosinophils; test: Eosinophil chemotaxis (agent in the bottom chamber of the chemotactic unit); assay type: cell-based, human; conditions: data not shown
Protocol: Chemotaxis was measured by adding PGD2 to the bottom chamber of a chemotactic unit containing eosinophils in the top chamber.

[6] = 15 minutes, FIG. 2: DK-PGD2 10 nM, PAF 100 nM, IL-5 1 ng/ml

## O=C(O)CCC/C=C\C[C@@H]1[C@@H](/C=C/[C@@H](O)COc2cccc(C(F)(F)F)c2)[C@H](O)C[C@@H]1O (racemic) [fluprostenol]
[1]
  stimulation of eosinophil chemokinesis (result in words): failed to modulate eosinophil migration
[2]; μM doses, data not shown
  change in eosinophil morphology: did not cause, even at μM doses, any alterations of eosinophil morphology
[3]
  effect on eosinophil apoptosis / percentage of non-apoptotic eosinophils (result in words): not significant

## O=C(O)CCCCCCC1C(=O)NC(=O)N1CCC(O)C1CCCCC1 (stereo not drawn) [BW245C]
[1]
  stimulation of eosinophil chemokinesis (result in words): not BW245C was effective in stimulating eosinophil chemokinesis
[2]; concentrations as high as 1 μM, panel 2c
  change in eosinophil morphology: did not affect eosinophil shape
[4]; 1 hour
  release of ECP from eosinophils (result in words): not BW245C, significantly increased the release of ECP
[3]; BW245C 1 μM, 36 hours, over vehicle treated population, 9 donors
  increase in the percentage of non-apoptotic eosinophil: 17%

## CCCCCC(=O)CCC1C(=O)CC(O)C1C/C=C\CCCC(=O)O (stereo not drawn) [DK-PGD2, 13,14-dihydro-15-keto-PGD2]
[1]
  stimulation of eosinophil chemokinesis (result in words): effective in stimulating eosinophil chemokinesis
[2]; [6]
  change in eosinophil morphology: induced a morphological change identical to that observed with PGD2
[4]; 1 hour
  release of ECP from eosinophils (result in words): significantly increased the release of ECP
[3]
  effect on eosinophil apoptosis / percentage of non-apoptotic eosinophils (result in words): no significant effect

## CCCCC[C@H](O)/C=C/[C@H]1C(=O)C[C@H](O)[C@@H]1C/C=C\CCCC(=O)O [PGD2, Prostanglandin D2]
[1]; 10 nM
  increase in eosinophil chemokinesis: 5 fold
[1]; 1 μM
  increase in eosinophil chemokinesis: 9 fold
[1]; 100 mM (so in the source), 5 minutes pre-treatment, 2 hours migration, FIG. 3
  increase in eosinophil chemokinesis compared to cells treated with vehicle only: 6 fold
[1]
  stimulation of eosinophil chemokinesis (result in words): increased cell motility in the absence of a chemical gradient
[2]; PGD2-treated eosinophils, data not shown
  morphology change after a second PGD2 challenge: resistant to morphology changes after a second PGD2 challenge
[2]; PGD2 <10 nM, within minutes, n=20 donors
  change in eosinophil morphology: induced dramatic changes in cell morphology
[2]; after PGD2 treatment
  reversion of treated eosinophils to spherical shape: reverted to a spherical shape within six hours
[4]; 10 to 100 nM, 1 hour, FIG. 4
  release of ECP from eosinophils into the media: significantly increased the release of ECP
[4]; after PGD2 challenge, data not shown
  release of the granular protein EDN from eosinophils: observed the release from eosinophils of another granular protein, EDN
[4]; average over donors
  extent of ECP release relative to PAF: about half that seen with PAF
[5]; PGD2 added to the bottom chamber
  chemotactic (chemoattractant) effect on eosinophils: not observed to exert a chemotatic effect; also recorded: did not attract eosinophils to the lower chamber
[5]; pre-incubation up to 1 μM for 5 minutes to 18 hours
  chemotactic response of pre-incubated eosinophils to PAF or eotaxin: did not have an altered chemotactic response
[3]
  effect on eosinophil apoptosis / percentage of non-apoptotic eosinophils (result in words): weak inhibitor of apoptotic cell death

## CCCCC[C@H](O)/C=C/[C@H]1[C@H](O)CC(=O)[C@@H]1C/C=C\CCCC(=O)O [PGE2]
[1]
  stimulation of eosinophil chemokinesis (result in words): failed to modulate eosinophil migration
[2]; μM doses, data not shown
  change in eosinophil morphology: did not cause, even at μM doses, any alterations of eosinophil morphology
[3]
  effect on eosinophil apoptosis / percentage of non-apoptotic eosinophils (result in words): increased the percentage of non-apoptotic eosinophils

## CC(C)OC(=O)CCC/C=C\C[C@@H]1[C@@H](CC[C@@H](O)CCc2ccccc2)[C@H](O)C[C@@H]1O [latanoprost]
[1]
  stimulation of eosinophil chemokinesis (result in words): failed to modulate eosinophil migration
[2]; μM doses, data not shown
  change in eosinophil morphology: did not cause, even at μM doses, any alterations of eosinophil morphology
[3]
  effect on eosinophil apoptosis / percentage of non-apoptotic eosinophils (result in words): not significant

## Il-5: Recombinant human interleukin-5 produced using a baculovirus system and purified by FPLC
[1]
  stimulation of eosinophil chemokinesis (result in words): able to stimulate eosinophil chemokinesis
[2]; [6]
  change in eosinophil morphology: lead to a rapid change in eosinophil morphology
[3]
  effect on eosinophil apoptosis / percentage of non-apoptotic eosinophils (result in words): increased the percentage of non-apoptotic eosinophils
